Data taken from ChEMBL document CHEMBL1201862, “PubChem BioAssay data set” (2004).
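All cell lines were grown in 96-well plates and treated with compound for 48 hours. At the GI50, growth is halved.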 Calls of active or inactive are those of the source. Cut-off read from the data, not from the text of the source: active = GI50 up to about 1.1 µM and inactive = higher.

What was measured:
Experiment in all cases: NCI tumour cell line growth inhibition, 48 h
[1] = system: DMS-114
[2] = system: XF498
[3] = system: M19-MEL
[4] = system: KM-20L2
[5] = system: DMS-273
[6] = system: HOP-18
[7] = system: RXF 631
[8] = system: Hs-578T
[9] = system: BT-549

SMILES | GI50 [1] | GI50 [2] | GI50 [3] | GI50 [4] | GI50 [5] | GI50 [6] | GI50 [7] | GI50 [8] | GI50 [9]
CCC1C(=O)OCc2c1cc1n(c2=O)CCC12OCCO2 (configuration not stated) | > 100 µM (inactive) | > 100 µM (inactive) | > 100 µM (inactive) | > 100 µM (inactive) | > 100 µM (inactive) | – | – | – | –
CC1OC(OC2C(OC(=O)[C@]34CCC(C)(C)CC3C3=CCC5[C@@]6(C)C[C@H](O)[C@H](OC7OC(COC8OC(CO)C(O)C(O)C8O)C(O)C(O)C7O)[C@@](C)(C(=O)O)C6CC[C@@]5(C)C3(C)CC4)OCC(O)C2O)C(O)C(O)C1OC1OCC(O)C(O)C1O (some centres not stated) | > 100 µM (inactive) | – | > 100 µM (inactive) | > 100 µM (inactive) | > 100 µM (inactive) | > 100 µM (inactive) | – | – | –
[O-][S+]1c2ccccc2N=C(c2ccc3ccccc3c2)CC1c1ccccc1F (configuration not stated) | > 100 µM (inactive) | > 100 µM (inactive) | > 100 µM (inactive) | > 100 µM (inactive) | > 100 µM (inactive) | > 100 µM (inactive) | > 100 µM (inactive) | – | –
O=C(O)c1c[nH]c2c(ccc3ncccc32)c1=O | > 100 µM (inactive) | – | > 100 µM (inactive) | > 100 µM (inactive) | > 100 µM (inactive) | > 100 µM (inactive) | – | – | –
O=C(Cc1nc2ccccc2c(=O)n1-c1ccccc1Cl)c1ccncc1 | > 100 µM (inactive) | – | > 100 µM (inactive) | > 100 µM (inactive) | > 100 µM (inactive) | > 100 µM (inactive) | > 100 µM (inactive) | – | –
COc1ccc(Nc2nnc(-c3nsc4ccccc34)s2)cc1 | 59.4 µM (inactive) | – | > 100 µM (inactive) | > 100 µM (inactive) | 47.1 µM (inactive) | 0.0149 µM (active) | – | 21.9 µM (inactive) | –
O=C(NS(=O)(=O)c1ccccc1)C(Cc1ccccc1)C(Cc1ccccc1)C(=O)NS(=O)(=O)c1ccccc1 (configuration not stated) | > 100 µM (inactive) | – | > 100 µM (inactive) | > 100 µM (inactive) | > 100 µM (inactive) | > 100 µM (inactive) | – | – | –
O=[N+]([O-])c1cc(I)cc(/C=N/NS(=O)(=O)c2ccc(F)cc2)c1O | 24.2 µM (inactive) | – | 31.2 µM (inactive) | 29.8 µM (inactive) | 21.5 µM (inactive) | 19.7 µM (inactive) | 23.7 µM (inactive) | – | –
COC(=O)C(CC(=O)Nc1ccc(C)cc1)C(=O)C(=O)Nc1c(C(C)C)cccc1C(C)C (configuration not stated) | > 100 µM (inactive) | > 100 µM (inactive) | > 100 µM (inactive) | > 100 µM (inactive) | – | – | > 100 µM (inactive) | – | –
O=[N+]([O-])c1ccc(NSc2ccccc2)cc1 | 21 µM (inactive) | 31.1 µM (inactive) | – | 31.8 µM (inactive) | 15.4 µM (inactive) | > 100 µM (inactive) | – | – | –
CN(C)CC1CCCC/C1=N/O (configuration not stated) | > 100 µM (inactive) | – | > 100 µM (inactive) | > 100 µM (inactive) | > 100 µM (inactive) | > 100 µM (inactive) | > 100 µM (inactive) | – | –
O=S1(=O)CSc2ccc3ccccc3c2-c2c1ccc1ccccc21 | > 100 µM (inactive) | > 100 µM (inactive) | > 100 µM (inactive) | – | > 100 µM (inactive) | > 100 µM (inactive) | > 100 µM (inactive) | – | –
Cc1cc(C)nc(Sc2c([N+](=O)[O-])ncn2C)n1 | > 100 µM (inactive) | > 100 µM (inactive) | > 100 µM (inactive) | – | > 100 µM (inactive) | 20.6 µM (inactive) | > 100 µM (inactive) | – | –
CCOC(=O)C1(c2ccccc2)CCCNCC1 (configuration not stated) | – | – | > 100 µM (inactive) | > 100 µM (inactive) | 57.1 µM (inactive) | > 100 µM (inactive) | – | – | –
NC(=S)N/N=C1\C(=O)N(c2cccc([N+](=O)[O-])c2)C(=O)C1C(=O)Nc1cccc([N+](=O)[O-])c1 (configuration not stated) | > 100 µM (inactive) | – | > 100 µM (inactive) | > 100 µM (inactive) | > 100 µM (inactive) | 65.3 µM (inactive) | – | – | –
COC(=O)N/N=C(\C)CC(=O)Nc1cccc([N+](=O)[O-])c1 | > 100 µM (inactive) | > 100 µM (inactive) | > 100 µM (inactive) | > 100 µM (inactive) | > 100 µM (inactive) | – | – | – | –
CC(C)(C)CC(C)(C)c1ccc(OCCOCC[N+](C)(C)Cc2ccccc2)cc1 [BENZETHONIUM CHLORIDE] | 1.15 µM (inactive) | 0.377 µM (active) | 1.53 µM (inactive) | 3.89 µM (inactive) | 1.44 µM (inactive) | 2.79 µM (inactive) | 11.9 µM (inactive) | – | –
COC1C2C=CC(C2)[C@H]1[N+](=O)[O-] (some centres not stated) | > 100 µM (inactive) | – | > 100 µM (inactive) | > 100 µM (inactive) | > 100 µM (inactive) | – | > 100 µM (inactive) | – | –
CN1CCn2c(Br)ccc2C1=O | – | > 100 µM (inactive) | > 100 µM (inactive) | > 100 µM (inactive) | > 100 µM (inactive) | – | – | – | –
CC(C)=CCc1c2c(c3occ(-c4ccc(O)cc4)c(=O)c3c1O)CC(C(C)(C)O)O2 (configuration not stated) [SENEGALENSIN] | – | – | – | – | – | – | – | 36.1 µM (inactive) | 17 µM (inactive)
Cn1c2ccccc2c(=O)c2cccc(C(=O)NCC(=O)O)c21 | – | – | – | – | – | – | – | > 100 µM (inactive) | > 100 µM (inactive)
Cc1ccc(S(=O)(=O)C2c3nc4ccccc4cc3-c3nc4ccccc4nc32)cc1 (configuration not stated) | > 100 µM (inactive) | > 100 µM (inactive) | > 100 µM (inactive) | > 100 µM (inactive) | > 100 µM (inactive) | – | – | – | –
C/C=C/[C@@]1(OC(=O)c2ccccc2)C[C@@H]2CCCC[C@@H]21 | – | – | – | – | – | – | – | 13.8 µM (inactive) | 14.9 µM (inactive)

SMILES | GI50 [1] | GI50 [2] | GI50 [3] | GI50 [4] | GI50 [5] | GI50 [6] | GI50 [7] | GI50 [8] | GI50 [9]
Cc1c2n(c3ccccc13)CC1C2N(C)OC1(C)C (configuration not stated) | > 100 µM (inactive) | > 100 µM (inactive) | > 100 µM (inactive) | > 100 µM (inactive) | > 100 µM (inactive) | – | – | – | –
NNc1ncnc2cccc(Cl)c12 | – | – | – | – | – | – | – | > 100 µM (inactive) | > 100 µM (inactive)
O=S1(=O)c2ccccc2N(O)C2=NCCN21 | > 100 µM (inactive) | – | > 100 µM (inactive) | > 100 µM (inactive) | > 100 µM (inactive) | – | – | – | –
CCOC(=O)C(=O)Nc1c(C(C)C)cccc1C(C)C | > 100 µM (inactive) | 54.6 µM (inactive) | > 100 µM (inactive) | > 100 µM (inactive) | > 100 µM (inactive) | > 100 µM (inactive) | > 100 µM (inactive) | – | –
O=[N+]([O-])c1ccc(-c2csc(=[N+]3CCCCC3)s2)cc1 | 2.13 µM (inactive) | 19.5 µM (inactive) | 10.7 µM (inactive) | 6.1 µM (inactive) | 28.8 µM (inactive) | > 100 µM (inactive) | 87.5 µM (inactive) | – | –
COC(=O)C1(Cc2ccccc2)Cc2ccccc2C1O (configuration not stated) | – | – | – | – | – | – | – | 55.1 µM (inactive) | > 100 µM (inactive)
CC(=O)CCn1ncc(Cl)c(Cl)c1=O | – | 19.7 µM (inactive) | 4.92 µM (inactive) | 16.5 µM (inactive) | 17.7 µM (inactive) | 16.6 µM (inactive) | – | – | –
Cn1cccc1-c1ccc(-c2ccc(CO)[se]2)[se]1 | – | – | – | – | – | – | – | 22.7 µM (inactive) | 20.2 µM (inactive)
N#CC(C(=O)C(=O)NCCCNC(=O)C(=O)C(C#N)c1ccccc1)c1ccccc1 (configuration not stated) | > 100 µM (inactive) | – | > 100 µM (inactive) | > 100 µM (inactive) | > 100 µM (inactive) | > 100 µM (inactive) | – | – | –
C=C1C(=O)[C@@]23CC[C@@H]4[C@@]5(C)CCC[C@@]4(OC5=O)[C@@]2(C)CC[C@@H]1C3 | – | – | – | – | – | – | – | 1.93 µM (inactive) | 1.3 µM (inactive)
COc1cc(C(N)=O)c(OC)c(OC)c1OC | > 100 µM (inactive) | – | > 100 µM (inactive) | > 100 µM (inactive) | > 100 µM (inactive) | – | > 100 µM (inactive) | – | –
CC[C@]12C=CCN3CCC4(c5cc(/N=N/c6ccccc6)c(OC)cc5N(C)[C@H]4[C@@](O)(C(=O)OC)[C@@H]1OC(C)=O)[C@@H]32 (some centres not stated) | – | – | – | – | – | – | – | 17.8 µM (inactive) | 17.1 µM (inactive)
Nc1nc(N)c2cc(Sc3cccc(C(F)(F)F)c3)ccc2n1 [WR-159412] | – | – | – | – | – | – | – | 2.66 µM (inactive) | 6.07 µM (inactive)
CCN(CC)CCC(=O)/C=C/c1ccccc1 | – | – | – | – | – | – | – | 14 µM (inactive) | 6.9 µM (inactive)
CC(=O)OCC1OC(OC2C(CSC3OC(COC(C)=O)C(OC(C)=O)C(OC(C)=O)C3OC(C)=O)OC(OC(C)=O)C(OC(C)=O)C2OC(C)=O)C(OC(C)=O)C(OC(C)=O)C1OC(C)=O (configuration not stated) | > 100 µM (inactive) | > 100 µM (inactive) | > 100 µM (inactive) | > 100 µM (inactive) | > 100 µM (inactive) | – | – | – | –
CC(=O)/C(=C\C1=CCCO1)C(=O)Nc1ccccc1C | > 100 µM (inactive) | > 100 µM (inactive) | > 100 µM (inactive) | – | – | > 100 µM (inactive) | > 100 µM (inactive) | – | –
COc1ccc(CCn2c(=O)c3ccccc3n(C)c2=O)cc1 | 11.2 µM (inactive) | 37.2 µM (inactive) | 19.3 µM (inactive) | 63.4 µM (inactive) | – | – | – | – | –
CC(C)=CCOc1cc(NC(=S)c2ccsc2C)ccc1Cl | – | – | – | – | – | – | – | 12.3 µM (inactive) | 23.6 µM (inactive)
Nc1c(S(=O)(=O)c2ccc(Cl)cc2)c2nc3ccccc3nc2n2ccnc12 | 54 µM (inactive) | 65.8 µM (inactive) | > 100 µM (inactive) | – | 82 µM (inactive) | 22.8 µM (inactive) | – | – | –
Cc1nc2cc3nc4ccccc4c(O)c3cc2s1 | > 100 µM (inactive) | > 100 µM (inactive) | > 100 µM (inactive) | > 100 µM (inactive) | > 100 µM (inactive) | 16.7 µM (inactive) | – | – | –
NS(=O)(=O)c1nnc(NSc2ccc([N+](=O)[O-])cc2)s1 | – | – | – | – | – | – | – | > 100 µM (inactive) | > 100 µM (inactive)
Cc1ccccc1C(O)(c1nccn1C)c1nccn1C | – | – | – | – | – | – | – | > 100 µM (inactive) | > 100 µM (inactive)
